Test results reported in paper PMC5431432, “Low-basicity 5-HT7 Receptor Agonists Synthesized Using the van Leusen Multicomponent Protocol” (Scientific Reports, 2017).

What was measured:
[1] = Water solubility (statement); assay type: physicochemical
[2] = biological target: T1, 5-HT1B (Homo sapiens, UniProt P28222); assay: Eurofins Cerep binding screen 5-HT1B; settings: 10^−6 M; read-out: % Inhibition of control binding 5-HT1B
T1 construct: Eurofins Cerep (contract screen)

[3] = Metabolic stability in human liver microsomes; assay type: in vitro ADME
Procedure: The in vitro evaluation of metabolic stability was performed by using human liver microsomes
(HLMs) (Sigma-Aldrich, St. Louis, MO, USA). The reaction mixtures consisted of 50 μM of tested
compounds with microsomes (1 mg/ml) in 10 mM tris-HCl buffer.
preincubation, the 50 µL of NADPH Regeneration System (Promega, Madison, WI, USA) was
added to initiate the reaction. The reactions were terminated by the addition of the cold methanol
The mixtures were centrifuged
The course of reaction was followed by using the
analyte/IS peak height ratio values.
Mass spectra were recorded on a UPLC-MS/MS system consisted of a Waters ACQUITY® UPLC® (Waters Corporation, Milford, MA, USA) coupled to a Waters TQD mass spectrometer
(electrospray ionization mode ESI-tandem quadrupole). Chromatographic separations were carried
particle size, equipped with Acquity UPLC BEH C18 VanGuard pre-column; 2.1 × 5 mm, and
The column was maintained at 40 °C, and eluted under gradient conditions
acid (0.1%, v/v); eluent B: acetonitrile/formic acid (0.1%, v/v). Chromatograms were made using
sampling rate 20 points/s. MS detection settings of Waters TQD mass spectrometer were as
600 L h−1, cone gas flow 100 L h−1, capillary potential 3.00 kV, cone potential 40 V. Nitrogen was
used for both nebulizing and drying gas. The data were obtained in a scan mode ranging from 50 to
2000 m/z in time 1.0 s intervals. Data acquisition software was MassLynx V 4.1 (Waters). The

[4] = biological target: T2, CYP3A4 (Homo sapiens, UniProt P08684); assay: biochemical
Procedure: (§1) Drug-drug interactions (DDI) – the influence on CYP3A4 activity
(§2) The luminescent CYP3A4 P450-Glo™ assay and protocol were provided by Promega (Madison, WI, USA)
(§3) was obtained from Sigma-Aldrich (St. Louis, USA). The enzymatic reactions were performed in white
(§4) polystyrene, flat-bottom Nunc™ MicroWell™ 96-Well Microplates (Thermo Scientific, Waltham, MA
(§5) USA). The luminescence signal was measured with a microplate reader in luminescence mode (EnSpire,
PerkinElmer, Waltham, MA USA).
The final concentrations of 1e and
to calculate IC50 values.

[5] = biological target: T3, CB1 (Homo sapiens, UniProt P21554); assay: Eurofins Cerep binding screen CB1; settings: 10^−6 M; read-out: % Inhibition of control binding CB1
T3 construct: Eurofins Cerep (contract screen)

[6] = biological target: human serotonin 5-HT7bR (Homo sapiens, UniProt P34969); assay: Radioligand binding, [3H]-5-CT displacement; settings: read-out: K i (5-HT7R)
[7] = biological target: human 5-HT7 receptor (Homo sapiens, UniProt P34969); assay: Functional assay, cAMP production (TR-FRET) in HEK293 cells overexpressing 5-HT7R; assay type: cell-based
[8] = biological target: T4, 5-HT5A (Homo sapiens, UniProt P47898); assay: Eurofins Cerep binding screen 5-HT5A; settings: 10^−6 M; read-out: % Inhibition of control binding 5-HT5A
T4 construct: Eurofins Cerep (contract screen)

[9] = tested on: α1; assay: Eurofins Cerep binding screen α1; settings: 10^−6 M
[10] = biological target: T5, H1 (Homo sapiens, UniProt P35367); assay: Eurofins Cerep binding screen H1; settings: 10^−6 M; read-out: % Inhibition of control binding H1
T5 construct: Eurofins Cerep (contract screen)

[11] = biological target: T6, 5-HT2B (Homo sapiens, UniProt P41595); assay: Eurofins Cerep binding screen 5-HT2B; settings: read-out: % Inhibition of control binding 5-HT2B
T6 construct: Eurofins Cerep (contract screen)

[12] = biological target: T2, CYP3A4; assay: in vitro; settings: CYP3A4 enzyme (Promega P450-Glo luminescent assay)
Procedure: as §1, §2, §3, §4, §5
PerkinElmer, Waltham, MA USA).
The final concentrations of 1e and
to calculate IC50 values.

[13] = tested on: HEK-293 cells; assay: MTS cytotoxicity assay HEK-293; assay type: cell-based, human; settings: 72 h incubation, 0.1–100 μM
Procedure: (§6) The cell line was cultured in Dulbecco’s Modified Eagle’s Medium DMEM (Gibco) with 10% fetal bovine
(§7) The cells were cultured in Modified Eagle’s Medium
(§8) MEM with 100 mg/ml streptomycin and 100 U/ml penicillin, 1%, Non Essential Amino Acids (NEAA) and
(§9) solutions of examined compounds in DMSO were diluted into fresh growth medium and added into the
(§10) microplates at the final concentrations 0.1 μM – 100 μM. The well-known cytostatic compound
(§11) doxorubicin (DX) 1 μM was used as a positive control for both cell lines. Additionally, carbonyl cyanide
(§12) 3-chlorophenylhydrazone (CCCP) 10 μM was used as positive control mitochondrial toxin for hepatocytes.
(§13) Proliferation Assay, Promega) was added to the each well and the cells were incubated under the same
(§14) conditions for 4 h. The absorbance of the samples was measured using a microplate reader (PerkinElmer) at

[14] = biological target: T7, D3 (Homo sapiens, UniProt P35462); assay: Eurofins Cerep binding screen D3; settings: 10^−6 M; read-out: % Inhibition of control binding D3
T7 construct: Eurofins Cerep (contract screen)

[15] = tested on: HepG2 cells; assay: MTS cytotoxicity assay HepG2; assay type: cell-based; settings: 72 h incubation, 0.1–100 μM
Procedure: as §6, §7, §8, §9, §10, §11, §12, §13, §14

[16] = biological target: T8, α2C (Homo sapiens, UniProt P18825); assay: Eurofins Cerep binding screen α2C; settings: 10^−6 M; read-out: % Inhibition of control binding α2C
T8 construct: Eurofins Cerep (contract screen)
T8 sequence (P18825 1-462): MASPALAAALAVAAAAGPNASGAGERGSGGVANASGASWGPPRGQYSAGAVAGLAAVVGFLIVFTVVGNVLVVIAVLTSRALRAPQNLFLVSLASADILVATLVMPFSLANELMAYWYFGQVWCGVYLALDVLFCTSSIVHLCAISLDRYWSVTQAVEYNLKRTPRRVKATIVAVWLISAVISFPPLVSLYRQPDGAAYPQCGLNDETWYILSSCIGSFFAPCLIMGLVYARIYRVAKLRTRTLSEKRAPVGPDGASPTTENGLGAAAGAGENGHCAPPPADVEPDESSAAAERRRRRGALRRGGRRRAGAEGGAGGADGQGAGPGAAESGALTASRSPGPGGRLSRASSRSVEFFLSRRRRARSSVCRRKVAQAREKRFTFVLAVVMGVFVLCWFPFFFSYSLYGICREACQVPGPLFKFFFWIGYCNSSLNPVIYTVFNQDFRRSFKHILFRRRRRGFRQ

T2 sequence (P08684 whole entry): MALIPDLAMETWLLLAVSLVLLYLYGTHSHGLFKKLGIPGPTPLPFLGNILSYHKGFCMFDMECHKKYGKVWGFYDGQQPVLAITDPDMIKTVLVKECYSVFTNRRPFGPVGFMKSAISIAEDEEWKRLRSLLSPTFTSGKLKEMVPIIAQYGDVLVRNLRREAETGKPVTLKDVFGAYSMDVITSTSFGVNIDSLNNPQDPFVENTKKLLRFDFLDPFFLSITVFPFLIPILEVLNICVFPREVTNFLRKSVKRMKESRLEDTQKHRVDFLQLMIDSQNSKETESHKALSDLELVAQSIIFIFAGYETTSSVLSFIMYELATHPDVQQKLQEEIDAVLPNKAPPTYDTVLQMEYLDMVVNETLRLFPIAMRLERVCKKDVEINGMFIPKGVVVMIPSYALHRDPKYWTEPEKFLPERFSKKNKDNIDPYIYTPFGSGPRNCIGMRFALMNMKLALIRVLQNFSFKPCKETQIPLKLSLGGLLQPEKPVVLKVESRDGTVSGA
T6 sequence (P41595 whole entry, species assumed): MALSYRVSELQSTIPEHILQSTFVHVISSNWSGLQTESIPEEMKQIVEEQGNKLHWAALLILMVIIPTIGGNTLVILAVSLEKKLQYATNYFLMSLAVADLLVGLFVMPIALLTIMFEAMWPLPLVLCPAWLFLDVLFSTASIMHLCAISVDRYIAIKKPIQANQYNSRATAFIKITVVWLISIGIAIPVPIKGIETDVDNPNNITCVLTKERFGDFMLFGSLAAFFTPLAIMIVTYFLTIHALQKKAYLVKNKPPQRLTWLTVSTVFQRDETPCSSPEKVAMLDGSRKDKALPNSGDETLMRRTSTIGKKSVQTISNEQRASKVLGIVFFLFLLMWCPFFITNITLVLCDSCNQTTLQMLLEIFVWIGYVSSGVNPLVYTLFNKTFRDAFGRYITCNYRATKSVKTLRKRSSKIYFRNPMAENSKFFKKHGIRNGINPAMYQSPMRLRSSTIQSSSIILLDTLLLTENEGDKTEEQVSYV
Chain of human 5-HT7 receptor (P34969 1-432 limits assumed): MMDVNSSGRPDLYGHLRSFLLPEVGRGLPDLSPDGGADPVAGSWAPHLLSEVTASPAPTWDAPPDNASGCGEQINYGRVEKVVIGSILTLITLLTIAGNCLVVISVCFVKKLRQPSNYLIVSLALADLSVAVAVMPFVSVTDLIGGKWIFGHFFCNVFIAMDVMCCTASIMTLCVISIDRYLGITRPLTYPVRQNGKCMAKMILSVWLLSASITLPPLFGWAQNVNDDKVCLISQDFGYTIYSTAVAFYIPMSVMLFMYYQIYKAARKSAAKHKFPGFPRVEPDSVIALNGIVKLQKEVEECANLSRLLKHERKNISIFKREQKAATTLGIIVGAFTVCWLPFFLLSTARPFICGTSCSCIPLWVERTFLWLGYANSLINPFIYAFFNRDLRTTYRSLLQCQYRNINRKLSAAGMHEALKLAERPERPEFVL
T4 sequence (P47898 whole entry, species assumed): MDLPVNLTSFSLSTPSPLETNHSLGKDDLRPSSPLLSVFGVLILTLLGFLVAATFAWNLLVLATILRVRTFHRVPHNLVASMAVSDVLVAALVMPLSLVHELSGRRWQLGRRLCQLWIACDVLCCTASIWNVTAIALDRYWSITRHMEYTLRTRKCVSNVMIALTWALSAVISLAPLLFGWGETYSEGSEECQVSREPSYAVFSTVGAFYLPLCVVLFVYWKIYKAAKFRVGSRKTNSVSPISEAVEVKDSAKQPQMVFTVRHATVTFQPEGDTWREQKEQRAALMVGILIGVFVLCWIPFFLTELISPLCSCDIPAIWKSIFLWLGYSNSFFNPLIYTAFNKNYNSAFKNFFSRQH
T3 sequence (P21554 whole entry, species assumed): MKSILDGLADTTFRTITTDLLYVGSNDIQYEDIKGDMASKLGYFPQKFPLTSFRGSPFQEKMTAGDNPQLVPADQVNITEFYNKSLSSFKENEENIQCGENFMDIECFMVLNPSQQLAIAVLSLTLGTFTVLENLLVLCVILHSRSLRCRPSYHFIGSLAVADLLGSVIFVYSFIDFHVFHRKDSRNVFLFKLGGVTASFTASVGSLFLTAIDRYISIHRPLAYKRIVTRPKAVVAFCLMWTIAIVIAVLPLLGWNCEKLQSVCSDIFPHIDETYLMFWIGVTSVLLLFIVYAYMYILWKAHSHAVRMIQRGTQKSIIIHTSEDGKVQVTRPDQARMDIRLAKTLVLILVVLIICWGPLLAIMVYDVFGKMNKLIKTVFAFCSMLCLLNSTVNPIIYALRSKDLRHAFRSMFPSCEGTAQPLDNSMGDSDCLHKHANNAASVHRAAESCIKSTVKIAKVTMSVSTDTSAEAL
T7 sequence (P35462 whole entry): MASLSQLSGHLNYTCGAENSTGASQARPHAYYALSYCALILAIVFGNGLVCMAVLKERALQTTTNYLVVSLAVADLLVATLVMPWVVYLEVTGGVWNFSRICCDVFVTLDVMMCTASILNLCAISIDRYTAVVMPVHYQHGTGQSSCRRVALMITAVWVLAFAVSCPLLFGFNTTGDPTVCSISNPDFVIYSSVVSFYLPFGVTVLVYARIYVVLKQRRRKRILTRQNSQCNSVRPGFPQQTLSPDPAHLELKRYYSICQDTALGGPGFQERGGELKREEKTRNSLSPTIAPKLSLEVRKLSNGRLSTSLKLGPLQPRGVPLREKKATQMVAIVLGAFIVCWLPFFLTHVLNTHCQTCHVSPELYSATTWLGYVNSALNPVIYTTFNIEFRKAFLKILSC
T5 sequence (P35367 whole entry): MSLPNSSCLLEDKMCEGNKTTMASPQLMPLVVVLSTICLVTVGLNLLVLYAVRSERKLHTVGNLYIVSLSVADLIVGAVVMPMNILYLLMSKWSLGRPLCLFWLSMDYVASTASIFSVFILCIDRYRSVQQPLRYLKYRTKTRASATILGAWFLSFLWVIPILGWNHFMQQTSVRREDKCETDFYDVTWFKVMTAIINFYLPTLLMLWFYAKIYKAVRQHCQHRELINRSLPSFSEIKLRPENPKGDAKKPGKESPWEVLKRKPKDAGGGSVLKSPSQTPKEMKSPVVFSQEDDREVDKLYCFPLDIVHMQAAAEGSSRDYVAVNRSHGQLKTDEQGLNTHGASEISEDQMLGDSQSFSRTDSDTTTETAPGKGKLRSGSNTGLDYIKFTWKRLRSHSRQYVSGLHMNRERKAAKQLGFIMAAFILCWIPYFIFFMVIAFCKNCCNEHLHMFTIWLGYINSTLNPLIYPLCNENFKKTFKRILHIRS
T1 sequence (P28222 whole entry, species assumed): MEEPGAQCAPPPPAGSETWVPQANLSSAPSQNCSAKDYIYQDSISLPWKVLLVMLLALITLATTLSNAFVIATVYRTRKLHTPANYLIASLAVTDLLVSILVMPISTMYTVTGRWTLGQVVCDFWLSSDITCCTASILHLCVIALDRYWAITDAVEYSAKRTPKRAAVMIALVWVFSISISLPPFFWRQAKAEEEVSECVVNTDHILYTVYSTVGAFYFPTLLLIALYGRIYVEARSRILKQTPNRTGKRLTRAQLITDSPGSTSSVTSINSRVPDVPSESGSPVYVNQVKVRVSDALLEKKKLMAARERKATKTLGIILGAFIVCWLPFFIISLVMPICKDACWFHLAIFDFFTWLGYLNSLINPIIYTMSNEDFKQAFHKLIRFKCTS
Chain of human serotonin 5-HT7bR (P34969 1-432 limits assumed): as the sequence (P34969 1-432 limits assumed) above

CCn1cncc1-c1c[nH]c2ccc(OC)cc12.Cl [1e, 3-(1-Ethyl-1H-imidazol-5-yl)-5-methoxy-1H-indole hydrochloride]
water solubility in words [1]: water soluble
inhibition at 1 µM [2]: 24%
main metabolic pathway ([3]; MS of metabolite M1): hydroxylation
CLint scaled at 50 μM ([3]; human, read-out: Clint, metabolic clearance): 0.221 L/h/kg
IC50 [4]: 0.27 µM
inhibition at 1 µM [5]: 8%
Ki [6]: 0.03 µM
function at the human 5-HT7 receptor [7]: full agonists
EC50 ([7]; hydrochloride salts): 0.06 µM
inhibition at 1 µM [8]: 9%
% Inhibition of control binding α1 [9]: 5%
inhibition at 1 µM [10]: 6%
inhibition at 1 µM ([11]; 10^−6 M (1 µM)): 93%
inhibition at 0.01 µM ([11]; 10^−8 M (10 nM)): 6%
IC50 [12]: 0.24 µM
cell viability in words, HEK-293 [13]: the cells remained viable in all tested concentrations
inhibition at 1 µM [14]: 8%
cell viability in words, HepG2 [15]: the cells remained viable in all tested concentrations
inhibition at 1 µM [16]: 9%
